The source of these data is ChEMBL document CHEMBL1201862, “PubChem BioAssay data set” (2004).

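How tested: cells in 96-well plates exposed to compound for 48 hours at five concentrations. Abbreviation: GI50, concentration required for 50% inhibition of growth.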 Active and inactive are the calls of the source. Cut-off read from the data, not from the text of the source: active = GI50 up to about 1.1 µM and inactive = higher.

Among the test systems are BT-549; HCT-116; SNB-75; K562; NCI-H226; OVCAR-8; OVCAR-3; MOLT-4; LOX IMVI; NCI-H23; RPMI-8226; SNB-19; HOP-92; DU-145; SW-620; MDA-MB-231; COLO 205; UACC-62; SK-MEL-5; HL-60.
Holding throughout (assay): NCI-60 cell line screen, 48 h

For the molecule `CN(C)CC/C=C1\c2ccccc2Sc2ccc(Cl)cc21`, the GI50 in the experiment on BT-549 was 15.2 µM (inactive); with HCT-116, 11.6 µM (inactive); in the experiment with SNB-75, 12.3 µM (inactive); in the experiment on K562, 5.16 µM (inactive); in the experiment with NCI-H226 it was 18.6 µM (inactive); in the experiment with OVCAR-8, 15.5 µM (inactive). The GI50 with OVCAR-3 is 13.4 µM (inactive); in the experiment on MOLT-4, 11.5 µM (inactive); in the experiment on LOX IMVI it was 13.8 µM (inactive); in the experiment with NCI-H23, 15.6 µM (inactive); in the experiment on RPMI-8226, 3.78 µM (inactive); with SNB-19 it was 15.5 µM (inactive). The GI50 with HOP-92 is 4.75 µM (inactive); in the experiment on DU-145, 15.4 µM (inactive); with SW-620 it was 16.3 µM (inactive); with MDA-MB-231 it was 13.6 µM (inactive); in the experiment with COLO 205 it was 14.2 µM (inactive); with UACC-62, 13.6 µM (inactive). Also, the GI50 in the experiment with SK-MEL-5 is 14 µM (inactive); in the experiment on HL-60, 11.2 µM (inactive).
Turning to `CC(=O)Nc1ccc2c3c(cc(O)c2c1)N(C(=O)CCCCC(=O)N1CC(CCl)c2c1cc(O)c1cc(NC(C)=O)ccc21)CC3CCl` (stereo not given), the GI50 in the experiment with BT-549 is 0.183 µM (active); in the experiment with HCT-116 it was 0.125 µM (active); with SNB-75, < 0.0395 µM (active); in the experiment with K562, 0.284 µM (active); in the experiment on NCI-H226, 0.0333 µM (active); with OVCAR-8, 0.253 µM (active). For the same molecule, the GI50 is 0.209 µM (active) in the experiment on OVCAR-3; < 0.01 µM (active) in the experiment on MOLT-4; 0.0313 µM (active) in the experiment with LOX IMVI; < 0.0161 µM (active) with NCI-H23; 0.169 µM (active) with RPMI-8226; 0.0436 µM (active) with SNB-19. Also, the GI50 with HOP-92 is 0.207 µM (active); with DU-145, < 0.01 µM (active); with SW-620 it was 0.518 µM (active); in the experiment on MDA-MB-231, 0.29 µM (active); with COLO 205, 0.102 µM (active); in the experiment on UACC-62, 0.0154 µM (active). Moreover, the GI50 with SK-MEL-5 is 0.129 µM (active); in the experiment with HL-60, < 0.01 µM (active).
Regarding `CS(=O)(=O)Nc1ccc2c(c1)N(S(C)(=O)=O)CC2CCl` (stereo not given), the GI50 in the experiment with BT-549, in the experiment with HCT-116, in the experiment with SNB-75, in the experiment on K562, in the experiment with NCI-H226 and in the experiment with OVCAR-8 was > 100 µM (inactive) in each case. The GI50 in the experiment on OVCAR-3, with MOLT-4, in the experiment on LOX IMVI, in the experiment on NCI-H23, with RPMI-8226 and in the experiment on HOP-92 was > 100 µM (inactive) each time. Moreover, the GI50 in the experiment on DU-145, in the experiment with SW-620, in the experiment on MDA-MB-231, with COLO 205, in the experiment on UACC-62 and in the experiment with SK-MEL-5 was > 100 µM (inactive) in each case. Besides, the GI50 with HL-60 was > 100 µM (inactive).
`CN1C(=O)C(O)C[C@@H]1c1ccccc1` (stereo not given in full): the GI50 in the experiment on BT-549, with HCT-116, in the experiment on SNB-75, in the experiment with NCI-H226, with OVCAR-8 and with OVCAR-3 was > 100 µM (inactive) in each case. In addition, the GI50 in the experiment with MOLT-4, in the experiment on LOX IMVI, with NCI-H23, in the experiment with RPMI-8226, in the experiment with SNB-19 and in the experiment on HOP-92 was > 100 µM (inactive) in each case. Also, the GI50 in the experiment with DU-145, with SW-620, with MDA-MB-231, in the experiment on COLO 205, in the experiment with UACC-62 and in the experiment with SK-MEL-5 was > 100 µM (inactive) in each case. For the same molecule, the GI50 in the experiment with HL-60 was > 100 µM (inactive).
In the case of `Nc1nccc(NCC2(CO)CC(OCc3ccccc3)C2)n1` (stereo not given), the GI50 is > 100 µM (inactive) with BT-549; 90.4 µM (inactive) with HCT-116; > 100 µM (inactive) with SNB-75; 79.1 µM (inactive) with K562; > 100 µM (inactive) with NCI-H226; > 100 µM (inactive) in the experiment with OVCAR-8. Besides, the GI50 was 87.5 µM (inactive) in the experiment on OVCAR-3; > 100 µM (inactive) with MOLT-4; > 100 µM (inactive) in the experiment with LOX IMVI; > 100 µM (inactive) in the experiment with NCI-H23; > 100 µM (inactive) in the experiment with RPMI-8226; 56.9 µM (inactive) with HOP-92. Further, the GI50 in the experiment on DU-145 was 79.4 µM (inactive); with SW-620 it was > 100 µM (inactive); with MDA-MB-231, > 100 µM (inactive); with COLO 205, 99.1 µM (inactive); in the experiment on UACC-62, > 100 µM (inactive); with SK-MEL-5, 35.8 µM (inactive). In the experiment on HL-60, the GI50 is > 100 µM (inactive).
For the molecule `Cc1n(-c2ccccc2)c2c([n+]1Cc1ccc([N+](=O)[O-])cc1)C(=O)c1ccccc1C2=O`, the GI50 is 1.79 µM (inactive) in the experiment with BT-549; 2.02 µM (inactive) with HCT-116; 3.69 µM (inactive) in the experiment on SNB-75; 1.16 µM (inactive) in the experiment with K562; 5.43 µM (inactive) in the experiment on NCI-H226; 2.37 µM (inactive) in the experiment on OVCAR-8. The GI50 in the experiment on OVCAR-3 is 0.182 µM (active); in the experiment on MOLT-4, 0.59 µM (active); in the experiment on LOX IMVI it was 1.75 µM (inactive); in the experiment on NCI-H23 it was 1.9 µM (inactive); in the experiment with RPMI-8226, 0.845 µM (active); with SNB-19 it was 1.72 µM (inactive). The GI50 with HOP-92 is 2.3 µM (inactive); in the experiment on DU-145 it was 1.85 µM (inactive); in the experiment on SW-620 it was 2.12 µM (inactive); in the experiment on MDA-MB-231, 1.59 µM (inactive); in the experiment on COLO 205 it was 1.59 µM (inactive); in the experiment on UACC-62, 2.03 µM (inactive). Further, the GI50 was 1.85 µM (inactive) in the experiment with SK-MEL-5 and 0.409 µM (active) with HL-60.
With `CCOC(=O)Nn1c(C)nnc1CC#N`, the GI50 in the experiment on BT-549, in the experiment with HCT-116, in the experiment with SNB-75, in the experiment with K562, with NCI-H226 and with OVCAR-8 was > 100 µM (inactive) each time. Moreover, the GI50 with OVCAR-3, with MOLT-4, with LOX IMVI, in the experiment with NCI-H23, with RPMI-8226 and in the experiment on SNB-19 was > 100 µM (inactive) each time. Further, the GI50 was 58.9 µM (inactive) in the experiment on HOP-92; > 100 µM (inactive) with DU-145; > 100 µM (inactive) in the experiment on SW-620; > 100 µM (inactive) in the experiment on MDA-MB-231; > 100 µM (inactive) in the experiment with UACC-62; > 100 µM (inactive) in the experiment with SK-MEL-5. Further, the GI50 with HL-60 was > 100 µM (inactive).
For the molecule `Cc1cc(N(CCOS(C)(=O)=O)CCOS(C)(=O)=O)ccc1/C=N/c1ccc(-c2csc(-c3ccccc3)n2)c(Cl)c1`, the GI50 in the experiment with BT-549 was 19.2 µM (inactive); with HCT-116, 12.8 µM (inactive); in the experiment with SNB-75, 1.8 µM (inactive); in the experiment with K562 it was 6.28 µM (inactive); in the experiment on NCI-H226 it was 9.12 µM (inactive); in the experiment on OVCAR-8, 15.9 µM (inactive). The GI50 in the experiment on OVCAR-3 was 8.65 µM (inactive); in the experiment on MOLT-4 it was 2.43 µM (inactive); with LOX IMVI, 6.73 µM (inactive); in the experiment with NCI-H23, 5.98 µM (inactive); in the experiment on RPMI-8226, 11.2 µM (inactive); in the experiment on SNB-19, 4.66 µM (inactive). In addition, the GI50 in the experiment with HOP-92 is 9.64 µM (inactive); in the experiment with DU-145, 1.67 µM (inactive); in the experiment on SW-620, 5.2 µM (inactive); in the experiment on MDA-MB-231, 20.6 µM (inactive); with COLO 205, 1.64 µM (inactive); in the experiment on UACC-62 it was 2.95 µM (inactive). The GI50 is 7.6 µM (inactive) in the experiment with SK-MEL-5 and 2.45 µM (inactive) with HL-60.
As to `O=C(CSc1nc2ccc(I)cc2c(=O)n1Cc1ccccc1)Nc1ccccc1`, the GI50 with BT-549 is 20 µM (inactive); in the experiment on HCT-116 it was 42.1 µM (inactive); in the experiment with SNB-75, 2.94 µM (inactive); with K562 it was 39.5 µM (inactive); with NCI-H226 it was 11.9 µM (inactive); with OVCAR-8, 6.75 µM (inactive). Moreover, the GI50 in the experiment with OVCAR-3 is 10.8 µM (inactive); in the experiment on MOLT-4, > 100 µM (inactive); in the experiment on LOX IMVI, 50.7 µM (inactive); with NCI-H23, 69.2 µM (inactive); with RPMI-8226, 88.3 µM (inactive); with SNB-19, 17.5 µM (inactive). Besides, the GI50 with HOP-92 was 19.3 µM (inactive); with DU-145 it was 29.9 µM (inactive); in the experiment on SW-620 it was 92.7 µM (inactive); in the experiment on MDA-MB-231 it was 16.5 µM (inactive); with COLO 205, > 100 µM (inactive); in the experiment with UACC-62, 46.6 µM (inactive). Further, the GI50 was 32.1 µM (inactive) with SK-MEL-5 and > 100 µM (inactive) with HL-60.
Turning to `O=c1ccn([C@@H]2C[C@H]2CO)c(=O)[nH]1`, the GI50 in the experiment on BT-549, with HCT-116, in the experiment on SNB-75, with K562, in the experiment on NCI-H226 and with OVCAR-8 was > 100 µM (inactive) in each case. Also, the GI50 with MOLT-4, in the experiment on LOX IMVI, in the experiment with NCI-H23, in the experiment on RPMI-8226, in the experiment with SNB-19 and in the experiment with HOP-92 was > 100 µM (inactive) in each case. Also, the GI50 with DU-145, in the experiment on SW-620, in the experiment with MDA-MB-231, with COLO 205, with UACC-62 and in the experiment with SK-MEL-5 was > 100 µM (inactive) throughout. Further, in the experiment on HL-60, the GI50 was > 100 µM (inactive).
